Measurements: patent US20110184018A1, “METHOD FOR TREATING PERIPHERAL NEUROPATHIC PAIN” (LOHOCLA RESEARCH CORPORATION, priority 2005, published 2011)
Read-outs that look alike come from different tables or passages of the source.

Tests used:
CB1 receptor = molecular target: T1, CB1 receptor (Homo sapiens, UniProt P21554); experiment: cAMP accumulation in HEK293 cells transfected with AC7, D1AR, CB1R; assay type: cell-based; conditions: dopamine stimulated cAMP
T1 construct: expressed in transfected cells; host or cells: HEK293 cells (ATCC), calcium phosphate transfection
Protocol: HEK293 cells were obtained from American Type Culture Collection (Manassas, Va.). Cells were cultured in 225 mL flasks containing 39 mL of MEM containing 10% fetal bovine serum, penicillin (50 μg/mL), streptomycin (50 μg/mL), and neomycin (100 μg/mL). The flasks were maintained in a humidified atmosphere of 95% air and 5% CO2 at about 37° C. Transfection was performed by the method of DNA precipitation with calcium phosphate 1 day after HEK 293 cells were transferred to small flasks (75 mL) at the density of approximately 60 to 80% confluence. […] Transfection efficiency was routinely monitored by observing the expression of enhanced green fluorescent protein (GFP) by an epifluorescence microscope equipped with a filter set (excitation, 480/40 nm; emission, 535/50 nm) and a dichroic mirror (T89002bs; Chroma Technology, Rockingham, Vt.). […]
To determine the effect of the DCUK-OEt or other compounds on the function of the CB1 receptor, the cells were treated with the phosphodiesterase inhibitor, IBMX (500 μM), for 10 minutes at 37° C., followed by the addition of D1A receptor agonist, dopamine (DA) (1 μM), in the presence of a known CB1 agonist or agonist, plus a CB1 antagonist for 5 minutes. […] ATP and cAMP were separated through Dowex 50 and neutral alumina columns as is known in the art, and quantified by liquid scintillation counting. […]

[1] = system: rats following spinal nerve ligation (SNL); experiment: Thermal and tactile hyperalgesia after spinal nerve ligation (SNL); assay type: in vivo, rat
Protocol: FIG. 7 illustrates the scheme for testing the DCUK ethyl ester in neuropathic pain models. In FIG. 7 graphs showing attenuation of tactile (Panel A) and thermal (Panel B) hyperalgesia in animals following spinal nerve ligation (SNL) are provided. DCUK-OEt (30 or 100 mg/kg) was administered at the time indicated by the arrow. Hyperalgesic responses were followed for the next 180 minutes. The shaded area represents the area of hyperalgesia produced by SNL. BL on the X-axis represents the baseline response of animals prior to spinal nerve ligation. SNL represents the response of the animals after spinal nerve ligation and prior to receiving the DCUKA ethyl ester.
Spinal Nerve Ligation and Sham Surgery. Anesthesia was maintained with 0.5% halothane in oxygen. After surgical preparation of the rats, a 2-cm paraspinal incision was made at the level L4-S2. The unilateral L5 and L6 spinal nerves were exposed and tightly ligated distal to the dorsal root ganglia by using 4-0 silk suture. The incisions were closed, and animals were allowed to recover. Sham-operated control rats were prepared in an identical manner without L5/L6 nerve ligation. […] Separate groups of animals were used in tests for thermal and tactile hypersensitivity.
Tactile Hypersensitivity Test and Evaluation. Animals were placed in a suspended plastic chamber with a wire mesh platform and allowed to habituate for 15 minutes. Tactile hypersensitivity was determined by measuring paw withdrawal threshold in response to probing the plantar surface of the left hind paw with a series of 8 calibrated von Frey filaments (0.40, 0.70, 1.20, 2.00, 3.63, 5.50, 8.50, and 15.1 g). Measurements were taken before surgery and before and after administration of drug or vehicle. Withdrawal threshold was determined by sequentially increasing and decreasing stimulus intensity (“up and down” method), analyzed by using a Dixon nonparametric test, and expressed as the paw withdrawal threshold in gram force values. All studies were carried out 7 days after spinal nerve ligation (SNL).
Thermal Hypersensitivity Test (Radiant Heat Paw Withdrawal Test). Rats were placed in clear plastic chambers on a glass surface and were habituated for 15 minutes before testing. Thermal sensitivity was measured by using paw withdrawal latency to a radiant heat stimulus. A radiant heat source (i.e., infrared) was activated with a timer and focused onto the plantar surface of the left hind paw of a rat, and the latency to paw withdrawal was measured. A motion detector that halted both lamp and timer when the paw was withdrawn determined paw withdrawal latency. The latencies were measured before surgery and before and after drug or vehicle administration. A maximum cutoff of 33 seconds was used to prevent tissue damage. […]

[2] = molecular target: voltage sensitive sodium channel (neurotoxin receptor Site 2); experiment: [3H]BTX binding assay; conditions: rat cortical synaptosomes

T1 sequence (P21554 whole entry): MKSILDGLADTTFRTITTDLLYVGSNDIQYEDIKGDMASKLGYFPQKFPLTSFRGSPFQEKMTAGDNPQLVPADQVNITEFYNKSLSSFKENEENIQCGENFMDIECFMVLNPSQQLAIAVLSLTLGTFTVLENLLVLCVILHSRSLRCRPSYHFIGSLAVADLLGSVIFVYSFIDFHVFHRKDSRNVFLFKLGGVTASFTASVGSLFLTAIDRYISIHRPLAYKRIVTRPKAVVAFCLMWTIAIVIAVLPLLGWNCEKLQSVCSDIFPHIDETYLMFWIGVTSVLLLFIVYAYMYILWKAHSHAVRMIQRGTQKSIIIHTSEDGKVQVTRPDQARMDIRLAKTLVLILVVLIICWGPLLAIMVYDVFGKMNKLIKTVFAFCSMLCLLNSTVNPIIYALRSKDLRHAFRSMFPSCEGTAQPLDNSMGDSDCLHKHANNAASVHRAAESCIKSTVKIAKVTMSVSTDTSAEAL

SMILES: CCOC(=O)c1cc(NC(=O)N(c2ccccc2)c2ccccc2)c2c(Cl)cc(Cl)cc2n1 [DCUK-OEt, N,N-diphenyl-4-ureido-5,7-dichloro-2-carboxy quinoline ethyl ester]
- functional action at CB1 receptor (CB1 receptor): acts like an agonist at the CB1 receptor
- normalization of thermal versus tactile hyperalgesia ([1]; 30 or 100 mg/kg): thermal hyperalgesia is normalized by administration of DCUKA ethyl ester to a greater extent than tactile hyperalgesia
- inhibition of thermal hyperalgesia ([1]; i.p., 100 mg/kg): 75%
- reduction of thermal hyperalgesia ([1]; oral, 200 mg/kg emulsion): about 70%
- inhibition of thermal hyperalgesia ([1]; p.o., about 150 mg/kg): 45%

SMILES: O=C(O)c1cc(NC(=O)N(c2ccccc2)c2ccccc2)c2c(Cl)cc(Cl)cc2n1 [DCUKA, N,N-diphenyl-4-ureido-5,7-dichloro-2-carboxyquinoline]
- IC50 ([2]; depolarizing conditions (135 mM KCl), read-out: IC50 [3H]BTX binding under depolarizing conditions (value in parentheses)): 30 µM
- IC50 ([2]; none = no displacement at 100 μM, read-out: IC50 [3H]BTX binding): 76 µM
